Measured values taken from patent US7605168B2 (Plexxikon, Inc., priority 2004, dated 2009).
pIC50: −log10 of the molar value.

Experiments:
[1] = target: T1, PDE4B: catalytic domain of human PDE4B from S152-S528 (Homo sapiens, UniProt Q07343); assay: PDE4 IC50 determination by Scintillation Proximity Assay (SPA), PDE4B catalytic domain; format: biochemical; settings: [3H]cAMP SPA, 30 min at 30° C.
T1 construct: The catalytic domain of human PDE4B from S152-S528; His6 (N, cleaved yes); thrombin cleavage site (N, cleaved yes); made in house; host or cells: E. coli BL21 (DE3) RIL
Method in brief: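 Human PDE4B catalytic domain (80 ng/ml) hydrolysed [3H]cAMP in 50 mM Tris pH 7.5, 8.3 mM MgCl, 1.7 mM EGTA, 0.01% BSA for 30 min at 30 °C. Reaction was stopped with yttrium silicate SPA beads in 18 mM ZnSO4, and bound [3H]AMP was counted by scintillation. IC50 came from non-linear regression.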

[2] = target: T2, PDE4D: catalytic domain S316-V692 (Homo sapiens, UniProt Q08499); assay: PDE4 IC50 determination by Scintillation Proximity Assay (SPA), PDE4D catalytic domain; format: biochemical; settings: [3H]cAMP SPA, 30 min at 30° C.
T2 construct: pET15S PDE4D S316-V692-X; His6 (N, cleaved yes); thrombin cleavage site (N, cleaved yes); made in house; host or cells: E. coli BL21 (DE3) RIL
Experimental: IC50s were determined by Scintillation Proximity Assay (SPA). The principle of the assay is based on the fact that cAMP, the PDE4 substrate, binds weakly to Yittrium Silicate SPA beads, whereas AMP, the product of PDE4 hydrolysis binds strongly. Thus, the extent of PDE4 hydrolysis of a sample of [^3H]cAMP can be measured because only the [^3H]AMP produced by PDE4 hydrolysis will bind to the SPA beads and produce a scintillation signal.
[…] Enzyme was stored in 50% glycerol at −20°. See Example 144.
Compounds tested (see Tables 5 for compounds and results) were 3-fold serially diluted 11 times in DMSO from a starting concentration of 4 mM or 40 μM, depending on compound potency. 1 μl of each dilution was transferred into duplicate wells of a white polystyrene 384-well assay plate (Corning #3710). In addition to the compound dilutions, each assay plate contained control wells with 1 μl of DMSO (to define 0% enzyme inhibition) or 1 μl of 200 μM roflumilast (to define 100% enzyme inhibition). Using a Beckman FX robot, 10 μl of [^3H] cAMP (Amersham TRK559) at […] in assay buffer (50 mM Tris, pH 7.5; 8.3 mM MgCl; 1.7 mM EGTA; 0.01% BSA) was transferred to each assay well. Next, 10 μl of PDE4 enzyme in assay buffer was added and the plates were shaken for 30 s. at 1000 rpm to start the cAMP hydrolysis reaction. The concentrations of enzyme used were: PDE4B, 80 ng/ml; PDE4D, 4 ng/ml; PDE4B2, 2.5 μl of 50% glycerol stock/ml; PDE4D5 0.083 μl of 50% glycerol stock/ml. Assay plates were covered and incubated for 30 min. at 30° C. Reactions were stopped by robotic addition of 10 μl of 5 mg/ml SPA beads (Amersham RPNQ0013) in 18 mM ZnSO4. The assay plates were covered with clear plastic film, centrifuged for 1 min. at 1000 RPM to settle the SPA beads, and counted using a Wallac TriLux scintillation counter. IC50's were calculated from the raw assay data by non-linear regression curve fitting using the Assay Explorer software package from MDL.

[3] = target: T3, PDE4D5: full-length human PDE4D5 isozyme (Homo sapiens, UniProt Q08499); assay: PDE4 IC50 determination by Scintillation Proximity Assay (SPA), full-length PDE4D5; format: biochemical; settings: cell lysate, [3H]cAMP SPA
T3 construct: made in house; host or cells: baculovirus infected insect cells (pFastBacHT)
Method in brief: (§1)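 Unpurified enzyme from cell lysates (PDE4B2 2.5 μl, PDE4D5 0.083 μl of 50% glycerol stock/ml) hydrolysing [3H]cAMP in 50 mM Tris pH 7.5, 8.3 mM MgCl, 1.7 mM EGTA, 0.01% BSA, 30 min at 30 °C. Stopped with yttrium silicate SPA beads in 18 mM ZnSO4; bead-bound [3H]AMP counted. IC50 by non-linear regression.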

[4] = test system: TNF-α release from whole blood cultures stimulated with LPS; assay: IC50 by TNF alpha production upon stimulation of whole blood cultures with LPS; format: cell-based; settings: human whole blood (buffy coat) culture, 100 ng/ml LPS, 4 hours; read-out: h TNFα IC50
Method in brief: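 Human buffy coat, diluted with 7 volumes of RPMI/2.5% heat-inactivated FBS, was preincubated with compound (8-point 1:3 series) for 1 h at 37 °C. It was then stimulated with 100 ng/ml LPS (final) for 4 h. Supernatant TNF-α was measured by sandwich ELISA at 450 nm, and IC50 was set between DMSO (0%) and PDE4-inhibitor (100%) controls.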

[5] = target: T4, PDE4B2: full-length human PDE4B2 isozyme (Homo sapiens, UniProt Q07343); assay: PDE4 IC50 determination by Scintillation Proximity Assay (SPA), full-length PDE4B2; format: biochemical; settings: cell lysate, [3H]cAMP SPA
T4 construct: made in house; host or cells: baculovirus infected insect cells (pFastBacHT)
Method in brief: as §1

T4 sequence (Q07343 with tags, fused parts or gaps isoform Q07343-2): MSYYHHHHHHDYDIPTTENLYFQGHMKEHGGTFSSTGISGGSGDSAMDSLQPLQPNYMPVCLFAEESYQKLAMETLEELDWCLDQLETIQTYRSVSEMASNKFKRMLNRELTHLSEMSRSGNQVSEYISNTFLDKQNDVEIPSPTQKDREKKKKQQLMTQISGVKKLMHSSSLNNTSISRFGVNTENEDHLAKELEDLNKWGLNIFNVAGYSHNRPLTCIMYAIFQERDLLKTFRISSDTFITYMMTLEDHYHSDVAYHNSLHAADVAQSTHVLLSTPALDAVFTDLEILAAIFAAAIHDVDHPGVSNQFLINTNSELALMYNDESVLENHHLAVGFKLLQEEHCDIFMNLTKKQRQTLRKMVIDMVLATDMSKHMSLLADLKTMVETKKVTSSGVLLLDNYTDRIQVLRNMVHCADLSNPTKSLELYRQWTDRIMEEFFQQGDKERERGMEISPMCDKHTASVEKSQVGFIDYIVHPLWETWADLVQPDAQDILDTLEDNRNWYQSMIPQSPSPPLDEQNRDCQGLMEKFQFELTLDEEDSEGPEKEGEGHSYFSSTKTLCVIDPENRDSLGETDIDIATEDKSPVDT
T3 sequence (Q08499 with tags, fused parts or gaps isoform Q08499-6): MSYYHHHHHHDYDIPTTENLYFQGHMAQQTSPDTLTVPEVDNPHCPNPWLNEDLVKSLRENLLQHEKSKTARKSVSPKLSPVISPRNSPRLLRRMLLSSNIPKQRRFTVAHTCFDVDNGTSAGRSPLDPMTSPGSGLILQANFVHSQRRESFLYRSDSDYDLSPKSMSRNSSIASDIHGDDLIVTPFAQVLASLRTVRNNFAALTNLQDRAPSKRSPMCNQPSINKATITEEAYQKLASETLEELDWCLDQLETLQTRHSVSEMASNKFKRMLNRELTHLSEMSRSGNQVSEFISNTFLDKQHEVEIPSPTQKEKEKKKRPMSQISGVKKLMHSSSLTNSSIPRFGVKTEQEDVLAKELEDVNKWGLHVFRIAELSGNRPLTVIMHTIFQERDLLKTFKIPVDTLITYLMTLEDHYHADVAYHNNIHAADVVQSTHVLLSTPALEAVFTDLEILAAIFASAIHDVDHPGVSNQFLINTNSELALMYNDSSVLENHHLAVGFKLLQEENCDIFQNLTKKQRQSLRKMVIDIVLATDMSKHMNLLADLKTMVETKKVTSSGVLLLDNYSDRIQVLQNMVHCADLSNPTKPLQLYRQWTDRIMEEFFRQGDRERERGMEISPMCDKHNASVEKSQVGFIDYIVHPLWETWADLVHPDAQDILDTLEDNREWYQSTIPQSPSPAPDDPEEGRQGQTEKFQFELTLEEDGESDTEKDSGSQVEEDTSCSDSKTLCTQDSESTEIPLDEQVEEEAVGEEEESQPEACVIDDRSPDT
T1 sequence (Q07343 324-700): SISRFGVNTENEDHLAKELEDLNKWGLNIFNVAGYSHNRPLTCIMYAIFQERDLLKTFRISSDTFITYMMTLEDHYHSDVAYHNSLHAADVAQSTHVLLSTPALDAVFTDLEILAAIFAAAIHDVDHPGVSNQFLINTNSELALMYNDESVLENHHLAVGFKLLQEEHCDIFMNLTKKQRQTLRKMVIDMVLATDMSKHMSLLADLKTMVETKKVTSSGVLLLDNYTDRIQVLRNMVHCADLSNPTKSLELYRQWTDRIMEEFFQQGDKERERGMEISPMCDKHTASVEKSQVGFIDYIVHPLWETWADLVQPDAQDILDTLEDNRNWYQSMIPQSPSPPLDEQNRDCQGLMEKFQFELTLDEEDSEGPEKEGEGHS
T2 sequence (Q08499 380-756): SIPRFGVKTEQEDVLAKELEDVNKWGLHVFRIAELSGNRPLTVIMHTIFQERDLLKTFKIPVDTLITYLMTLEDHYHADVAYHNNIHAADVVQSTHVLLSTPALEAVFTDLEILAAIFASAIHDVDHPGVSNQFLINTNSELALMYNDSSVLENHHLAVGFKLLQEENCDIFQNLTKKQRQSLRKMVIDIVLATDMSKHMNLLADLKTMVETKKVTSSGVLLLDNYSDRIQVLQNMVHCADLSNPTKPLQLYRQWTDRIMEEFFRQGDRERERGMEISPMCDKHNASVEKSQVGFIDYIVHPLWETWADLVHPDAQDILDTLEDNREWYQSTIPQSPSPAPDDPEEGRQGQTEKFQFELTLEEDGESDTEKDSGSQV

Row | pIC50 [1] | pIC50 [2] | pIC50 [3] | pIC50 [4] | pIC50 [5] | SMILES
1 | > 5.00 | ≥ 5.00 | > 5.00 | ≥ 5.00 | > 5.00 | COc1ccc(-c2cn(Cc3cccc([N+](=O)[O-])c3)c3ncccc23)cc1OC [Compound 53, 3-(3,4-Dimethoxy-phenyl)-1-(3-nitro-benzyl)-1H-pyrrolo[2,3-b]pyridine]
2 | > 5.00 | ≥ 5.00 | > 5.00 | ≥ 5.00 | > 5.00 | COc1ccc(-c2cn(C(=O)c3cccnc3)c3ncccc23)cc1OC [Compound 56, [3-(3,4-Dimethoxy-phenyl)-pyrrolo[2,3-b]pyridin-1-yl]-(3-pyridylyl)-methanone-amide]
3 | > 5.00 | ≥ 5.00 | > 5.00 | ≥ 5.00 | > 5.00 | COc1ccc(-c2cn(C(=O)c3ccc4c(OC(C)=O)cccc4c3)c3ncccc23)cc1OC [Compound 62, Acetic acid 6-[3-(3,4-dimethoxy-phenyl)-pyrrolo[2,3-b]pyridine-1-carbonyl]-naphthalen-1-yl ester-amide]
4 | > 5.00 | ≥ 5.00 | > 5.00 | ≥ 5.00 | > 5.00 | COc1ccc(-c2cn(C(=O)c3csc4ccccc34)c3ncccc23)cc1OC [Compound 63, Benzo[b]thiophen-3-yl-[3-(3,4-dimethoxy-phenyl)-pyrrolo[2,3-b]pyridin-1-yl]-methanone]
5 | > 5.00 | ≥ 5.00 | > 5.00 | ≥ 5.00 | > 5.00 | COc1ccc(-c2cn(C(=O)c3ccc(F)c4ccccc34)c3ncccc23)cc1OC [Compound 64, [3-(3,4-Dimethoxy-phenyl)-pyrrolo[2,3-b]pyridin-1-yl]-(4-fluoro-naphthalen-1-yl)-methanone]
6 | > 5.00 | ≥ 5.00 | > 5.00 | ≥ 5.00 | > 5.00 | COc1ccc(-c2cn(C(=O)c3cccc4c(OC)cccc34)c3ncccc23)cc1OC [Compound 65, [3-(3,4-Dimethoxy-phenyl)-pyrrolo[2,3-b]pyridin-1-yl]-(5-methoxynaphthalen-1-yl)-methanone]
7 | > 5.00 | ≥ 5.00 | > 5.00 | ≥ 5.00 | > 5.00 | COc1ccc(-c2cn(C(=O)c3cccc4cccnc34)c3ncccc23)cc1OC [Compound 66]
8 | > 5.00 | ≥ 5.00 | > 5.00 | ≥ 5.00 | > 5.00 | COc1ccc(-c2cn(S(=O)(=O)c3ccc(-c4ccncc4C)cc3)c3ncccc23)cc1OC [Compound 69, 3-(3,4-Dimethoxy-phenyl)-1-[4-(3-methyl-pyridin-4-yl)-benzenesulfonyl]-1H-pyrrolo[2,3-b]pyridine]
9 | > 5.00 | ≥ 5.00 | > 5.00 | ≥ 5.00 | > 5.00 | COc1ccc(-c2c[nH]c3ncccc23)cc1OC1CCCC1 [Compound 88, 3-(3-Cyclopentyloxy-4-methoxy-phenyl)-1H-pyrrolo[2,3-b]pyridine]
10 | > 5.00 | ≥ 5.00 | > 5.00 | ≥ 5.00 | > 5.00 | COc1ccc(-c2cn(S(=O)(=O)c3cccc4cc(C)cnc34)c3ccc(Cl)cc23)cc1OC1CCCC1 [Compound 95, 8-[5-Chloro-3-(3-cyclopentyloxy-4-methoxy-phenyl)-indole-1-sulfonyl]-3-methyl-quinoline]
11 | > 5.00 | ≥ 5.00 | > 5.00 | ≥ 5.00 | > 5.00 | COc1ccc(-c2cn(S(=O)(=O)c3cccc4cc(C)cnc34)c3ccc(Cl)cc23)cc1OC [Compound 96, 8-[5-Chloro-3-(3,4-Dimethoxy-phenyl)-indole-1-sulfonyl]-3-methyl-quinoline]
12 | > 5.00 | ≥ 5.00 | > 5.00 | ≥ 5.00 | > 5.00 | COc1ccc(-c2cn(S(=O)(=O)c3cccc4cccnc34)c3ccccc23)cc1OC1CCCC1 [Compound 100, 8-[3-(3-Cyclopentyloxy-4-methoxy-phenyl)-indole-1-sulfonyl]-quinoline]
13 | > 5.00 | ≥ 5.00 | > 5.00 | ≥ 5.00 | > 5.00 | COc1ccc(-c2cn(S(=O)(=O)c3ccccc3)c3ncccc23)cc1OC1CCCC1 [Compound 101, 1-Benzenesulfonyl-3-(3-cyclopentyloxy-4-methoxy-phenyl)-1H-pyrrolo[2,3-b]pyridine]
14 | > 5.00 | ≥ 5.00 | > 5.00 | ≥ 5.00 | > 5.00 | COc1ccc(-c2cn(S(=O)(=O)c3cccc4cccnc34)c3ncccc23)cc1OC1CCCC1 [Compound 102, 8-[3-(3-Cyclopentyloxy-4-methoxy-phenyl)-pyrrolo[2,3-b]pyridine-1-sulfonyl]-quinoline]
15 | > 5.00 | ≥ 5.00 | > 5.00 | ≥ 5.00 | > 5.00 | COc1ccc(-c2cn(C(=O)c3ccc(N(C)C)c4ccccc34)c3ncccc23)cc1OC [Compound 109, [3-(3,4-Dimethoxy-phenyl)-pyrrolo[2,3-b]pyridin-1-yl]-(4-dimethylamino-naphthalen-1-yl)-methanone]
16 | > 5.00 | ≥ 5.00 | > 5.00 | ≥ 5.00 | > 5.00 | CCCOc1ccccc1C(=O)n1cc(-c2ccc(OC)c(OC)c2)c2cccnc21 [Compound 113, [3-(3,4-Dimethoxy-phenyl)-pyrrolo[2,3-b]pyridin-1-yl]-(2-propoxy-phenyl)-methanone]
17 | > 5.00 | ≥ 5.00 | > 5.00 | ≥ 5.00 | > 5.00 | COc1ccc(-c2cn(C(=O)c3ccnc4ccccc34)c3ncccc23)cc1OC [Compound 115, [3-(3,4-Dimethoxy-phenyl)-pyrrolo[2,3-b]pyridin-1-yl]-quinolin-4-yl-methanone]
18 | > 5.00 | ≥ 5.00 | > 5.00 | ≥ 5.00 | > 5.00 | COc1ccc(-c2cn(C(=O)c3cc(C)nc4ccccc34)c3ncccc23)cc1OC [Compound 116, [3-(3,4-Dimethoxy-phenyl)-pyrrolo[2,3-b]pyridin-1-yl]-(2-methyl-quinolin-4-yl)-methanone]
19 | > 5.00 | ≥ 5.00 | > 5.00 | ≥ 5.00 | > 5.00 | CCOc1cc(NS(C)(=O)=O)ccc1C(=O)n1cc(-c2ccc(OC)c(OC)c2)c2cccnc21 [Compound 145, N-{4-[3-(3,4-Dimethoxy-phenyl)-pyrrolo[2,3-b]pyridine-1-carbonyl]-3-ethoxy-phenyl}-methanesulfonamide]

Row | SMILES | pIC50 [1] | pIC50 [2] | pIC50 [3] | pIC50 [4] | pIC50 [5]
20 | CCOc1cc(N)ccc1C(=O)n1cc(-c2ccc(OC)c(OC)c2)c2cccnc21 [Compound 144, (4-Amino-2-ethoxy-phenyl)-[3-(3,4-dimethoxy-phenyl)-pyrrolo[2,3-b]pyridin-1-yl]-methanone] | > 5.00 | ≥ 5.00 | > 5.00 | ≥ 5.00 | > 5.00
